Source: ChEMBL document CHEMBL1121638, “Synthesis and preliminary pharmacological evaluation of asymmetric chloroquine analogues” (1981)
“And” between values parts separate entries of the source, which are not always exact repeats. Identical values can stand only once. The source made the active and inactive calls. No cut-off for these calls is given here.

Experiments:
Type in all cases: functional
Mus musculus [1] = species on record: Mus musculus; test: Compound was evaluated for the percentage inhibition of the control PGF2-alpha response at a concentration of 3 x 10 e-4 M in isolated mouse ileum
Mus musculus [2] = species on record: Mus musculus; test: Compound was evaluated for the percentage inhibition of PGF2-alpha-induced contractions at a concentration of 10 e-5 M in isolated mouse ileum
Mus musculus [3] = species on record: Mus musculus; test: Compound was evaluated for the percentage inhibition of PGF2-alpha-induced contractions at a concentration of 10 e-5 M in isolated mouse ileum; NI=No inhibition
Mus musculus [4] = species on record: Mus musculus; test: Antispasmodic activity evaluated as percentage reduction in the contractile response of the estrous uterus in mouse

## CCN(CC)CCC[C@@H](CCl)Nc1ccnc2cc(Cl)ccc12.Cl
Mus musculus [1]
  Inhibition: 55% and 32%
Mus musculus [2]
  inhibition at 10 µM: 28%

## CCN(CC)CCC[C@H](CCl)Nc1ccnc2cc(Cl)ccc12
Mus musculus [3]
  inhibition: inactive
Mus musculus [1]; Mus musculus, Ileum
  inhibition at 300 µM: 17%

## CCN(CC)CCC[C@H](C)Nc1ccnc2cc(Cl)ccc12
Mus musculus [4]
  Reduction: 50%
